Assays:
[1] = tested on: CHEAL: lambsquarters (Chenopodium album); assay: Post-Emergent Test I herbicidal activity; assay type: in vivo; conditions: Chenopodium album, post-emergence, 336 h, read-out: Visual Growth Reduction (%)-14 Days after Application CHEAL; for pest or weed control at 140 g/ha: Table 3, 140 g ai/ha
Experimental: (§1) Seeds or nutlets of the desired test plant species were planted in Sun Gro Metro-Mix® 360 planting mixture, which typically has a pH of 6.0 to 6.8 and an organic matter content of about 30 percent, in plastic pots with a surface area of 64 square centimeters. When required to ensure good germination and healthy plants, a fungicide treatment and/or other chemical or physical treatment was applied. The plants were grown for 7-21 d in a greenhouse with an approximate 15 h photoperiod which was maintained at about 23-29° C. during the day and 22-28° C. during the night. Nutrients and water were added on a regular basis and supplemental lighting was provided with overhead metal halide 1000-Watt lamps as necessary. The plants were employed for testing when they reached the first or second true leaf stage.
(§2) A weighed amount, determined by the highest rate to be tested, of each test compound was placed in a 25 mL glass vial and was dissolved in 4 mL of a 97:3 v/v mixture of acetone and DMSO to obtain concentrated stock solutions. […] The concentrated stock solutions obtained were diluted with 20 mL of an aqueous mixture containing acetone, water, isopropyl alcohol, DMSO, Atplus 411F crop oil concentrate, and Triton® X-155 surfactant in a 48.5:39:10:1.5:1.0:0.02 v/v ratio to obtain spray solutions containing the highest application rates. Additional application rates were obtained by serial dilution of 12 mL of the high rate solution into a solution containing 2 mL of 97:3 v/v mixture of acetone and DMSO and 10 mL of an aqueous mixture containing acetone, water, isopropyl alcohol, DMSO, Atplus 411F crop oil concentrate, and Triton X-155 surfactant in a 48.5:39:10:1.5:1.0:0.02 v/v ratio to obtain ½×, ¼×, ⅛× and 1/16× rates of the high rate. Compound requirements are based upon a 12 mL application volume at a rate of 187 liters per hectare (L/ha). Formulated compounds were applied to the plant material with an overhead Mandel track sprayer equipped with 8002E nozzles calibrated to deliver 187 L/ha over an application area of 0.503 square meters at a spray height of 18 inches (43 cm) above the average plant canopy height. Control plants were sprayed in the same manner with the solvent blank.
(§3) The treated plants and control plants were placed in a greenhouse as described above and watered by subirrigation to prevent wash-off of the test compounds. After 14 d, the condition of the test plants as compared with that of the untreated plants was determined visually and scored on a scale of 0 to 100 percent where 0 corresponds to no injury and 100 corresponds to complete kill.
(§4) By applying the well-accepted probit analysis as described by J. Berkson in Journal of the […], 48, 565 (1953) and by D. Finney in “Probit Analysis” Cambridge University Press (1952), the above data can be used to calculate GR20, GR50 and GR80 values, which are defined as growth reduction factors that correspond to the effective dose of herbicide required to kill or control 20 percent, 50 percent or 80 percent, respectively, of a target plant.

[2] = tested on: ABUTH: velvetleaf (Abutilon theophrasti); assay: Post-Emergent Test I herbicidal activity; assay type: in vivo; conditions: Abutilon theophrasti, post-emergence, 336 h, read-out: Visual Growth Reduction (%)-14 Days after Application ABUTH; for pest or weed control at 140 g/ha: Table 3, 140 g ai/ha
Experimental: as §1, §2, §3, §4

[3] = tested on: EPHHL: wild poinsettia (Euphorbia heterophylla); assay: Post-Emergent Test I herbicidal activity; assay type: in vivo; conditions: post-emergence, 336 h, read-out: Visual Growth Reduction (%)-14 Days after Application EPHHL; for pest or weed control at 140 g/ha: Table 3, 140 g ai/ha
Experimental: as §1, §2, §3, §4

[4] = tested on: ECHCG: barnyardgrass (Echinochloa crus-galli); assay: Post-Emergent Test I herbicidal activity; assay type: in vivo; conditions: post-emergence, 336 h, read-out: Visual Growth Reduction (%)-14 Days after Application ECHCG; for pest or weed control at 140 g/ha: Table 3, 140 g ai/ha
Experimental: as §1, §2, §3, §4

[5] = tested on: ZEAMX: corn (Zea mays); assay: Post-Emergent Test I herbicidal activity; assay type: in vivo; conditions: Zea mays, post-emergence, 336 h, read-out: Visual Growth Reduction (%)-14 Days after Application ZEAMX; for pest or weed control at 140 g/ha: Table 3, 140 g ai/ha
Experimental: as §1, §2, §3, §4

[6] = tested on: ORYSA: rice (Oryza sativa); assay: Post-Emergent Test I herbicidal activity; assay type: in vivo; conditions: post-emergence, 336 h, read-out: Visual Growth Reduction (%)-14 Days after Application ORYSA; for pest or weed control at 140 g/ha: Table 3, 140 g ai/ha
Experimental: as §1, §2, §3, §4

[7] = tested on: CYPES: yellow nutsedge (Cyperus esculentus); assay: Post-Emergent Test I herbicidal activity; assay type: in vivo; conditions: post-emergence, 336 h, read-out: Visual Growth Reduction (%)-14 Days after Application CYPES; for pest or weed control at 140 g/ha: Table 3, 140 g ai/ha
Experimental: as §1, §2, §3, §4

Compound `COC(=O)c1nc(-c2ccc([Si](C)(C)C)c(F)c2F)c(F)c(N)c1OC` has a melting point of 123 to 125 °C.
Work on `COC(=O)c1nc(-c2cc(F)c([Si](C)(C)C)cc2F)c(F)c(N)c1OC` yielded a melting point of 137 to 139 °C.
Compound `COC(=O)c1nc(-c2ccc([Si](C)(C)C)cc2F)c(F)c(N)c1OC` has a melting point of 127 to 129 °C.
In the case of `COC(=O)c1nc(-c2ccc(Cl)c(OC)c2F)cc(N)c1OC(F)F` [Compound 9], the melting point is reported as 162 to 164 °C.
Work on `COc1c(C(=O)O)nc(-c2ccc(Cl)cc2F)c(F)c1N` [Compound 71] yielded a pest or weed control at 70 g/ha ([1]; Table 3, 70 g ai/ha) of 90%, a pest or weed control at 70 g/ha ([2]; Table 3, 70 g ai/ha) of 80% and a pest or weed control at 70 g/ha ([3]; Table 3, 70 g ai/ha) of 100%. For the same compound, the pest or weed control at 70 g/ha ([4]; Table 3, 70 g ai/ha) was 85%, the pest or weed control at 70 g/ha ([5]; Table 3, 70 g ai/ha) was 70% and the pest or weed control at 70 g/ha ([6]; Table 3, 70 g ai/ha) was 0%. For the same compound, the pest or weed control at 70 g/ha ([7]; Table 3, 70 g ai/ha) was 100%.
In the case of `COC(=O)c1nc(-c2ccc(OC)nc2)c(F)c(N)c1OC` [Compound 75, methyl 4-amino-3-fluoro-5,6′-dimethoxy-[2,3′-bipyridine]-6-carboxylate], the pest or weed control at 140 g/ha [1] is reported as 85%, the pest or weed control at 140 g/ha [2] is reported as 90% and the pest or weed control at 140 g/ha [3] is reported as 85%. For the same compound, the pest or weed control at 140 g/ha [4] was 0%, the pest or weed control at 140 g/ha [5] was 85% and the pest or weed control at 140 g/ha [6] was 0%. It also gave a pest or weed control at 140 g/ha [7] of 95%.
With `COC(=O)c1nc(-c2ccc(C3CC3)nc2)c(F)c(N)c1OC` [Compound 76, methyl 4-amino-6′-cyclopropyl-3-fluoro-5-methoxy-[2,3′-bipyridine]-6-carboxylate] the pest or weed control at 140 g/ha [1] was 80%, the pest or weed control at 140 g/ha [2] was 85% and the pest or weed control at 140 g/ha [3] was 97%. For the same compound, the pest or weed control at 140 g/ha [4] was 0%, the pest or weed control at 140 g/ha [5] was 50% and the pest or weed control at 140 g/ha [6] was 0%. It also gave a pest or weed control at 140 g/ha [7] of 95%.
With `COc1c(C(=O)O)nc(-c2ccc(C3CC3)nc2)c(F)c1N` [Compound 77, 4-amino-6′-cyclopropyl-3-fluoro-5-methoxy-[2,3′-bipyridine]-6-carboxylic acid] the pest or weed control at 140 g/ha [1] was 75%, the pest or weed control at 140 g/ha [2] was 80% and the pest or weed control at 140 g/ha [3] was 95%. It also gave a pest or weed control at 140 g/ha [4] of 85%, a pest or weed control at 140 g/ha [5] of 95% and a pest or weed control at 140 g/ha [6] of 65%. The pest or weed control at 140 g/ha [7] was 90%.
